Test results: patent publication US20060128715A1, “Oxime derivative hydroxyethylamine aspartyl-protease inhibitors” (priority 2004, published 2006)
Where “and” joins values, the source holds several entries; their conditions need not be identical. Equal entries are not always repeated.

tested on: cathepsin D (catD) versus beta-secretase (BACE); experiment: Selectivity for BACE versus catD (ratio of IC50 values); assay type: biochemical; conditions: each value is an average of four experimental runs; multiple values = more than one experiment
Protocol: (§1) Selectivity was calculated as a ratio of inhibition (IC50) values in which the inhibition of beta-secretase was compared to the inhibition of other aspartyl proteases.
In the following examples, each value is an average of four experimental runs and multiple values for one compound indicate that more than one experiment was conducted.

Selectivity IC50(catD)/IC50(BACE)	Structure (SMILES)
25.4	CC(C)(C)c1cccc(C2(NCC(O)C(Cc3cc(F)cc(F)c3)NS(C)(=O)=O)CCc3n[nH]cc3C2)c1 (single isomer, unassigned) [Example 50-15]
2.7	CC(C)(C)c1cccc(C2(NCC(O)C(Cc3cc(F)cc(F)c3)NS(C)(=O)=O)CCc3n[nH]cc3C2)c1 (single isomer, unassigned) [Example 50-16]
11.0	Cn1cc2c(n1)CCC(NCC(O)C(Cc1cc(F)cc(F)c1)NS(C)(=O)=O)(c1cccc(C(C)(C)C)c1)C2 (single isomer, unassigned) [Example 50-18]
11.1	CC(=O)NC(Cc1cc(F)cc(F)c1)C(O)CNC1(c2cccc(C(C)(C)C)c2)CCc2nn(C(C)=O)cc2C1 (stereo not drawn) [Example 50-12]
1.1	CC(=O)NC(Cc1cc(F)cc(F)c1)C(O)CNC1(c2cccc(-c3ccsc3)c2)CCc2nn(C)cc2C1 (stereo not drawn) [Example 50-17]
1.8	CC(=O)NC(Cc1cc(F)cc(F)c1)C(O)CNC1(c2cccc(-c3ccoc3)c2)CCc2nn(C)cc2C1 (stereo not drawn) [Example 50-19]
19.1	CC(=O)NC(Cc1ccccc1)C(O)CNC1(c2cccc(C(C)(C)C)c2)CCc2n[nH]cc2C1 (stereo not drawn) [Example 50-20]
4.5	CC(=O)NC(Cc1cc(F)cc(F)c1)C(O)CNC1(c2cccs2)CCc2n[nH]cc2C1 (stereo not drawn) [Example 50-23]
5.9 and 7.0	CC(=O)NC(Cc1cc(F)cc(F)c1)C(O)CNC1(c2cc(CC(C)(C)C)cs2)CCc2n[nH]cc2C1 (stereo not drawn) [Example 50-24]
2.8	CC(=O)NC(Cc1cc(F)cc(F)c1)C(O)CNC1(c2cccc(C(C)(C)C)c2)CCc2nn(C)cc2C1 (stereo not drawn) [Example 50-28]
16.3	CC(=O)NC(CC(C)C)C(O)CNC1(c2cccc(C(C)(C)C)c2)CCc2n[nH]cc2C1 (stereo not drawn) [Example 50-29]

Structure (SMILES)	Selectivity IC50(catD)/IC50(BACE)
CC(C)(C)c1cccc(C2(NCC(O)C(Cc3cc(F)cc(F)c3)NC(=O)CF)CCc3n[nH]cc3C2)c1 (single isomer, unassigned) [Example 50-26]	17.8
CC(C)(C)c1cccc(C2(NCC(O)C(Cc3cc(F)cc(F)c3)NC(=O)CF)CCc3n[nH]cc3C2)c1 (single isomer, unassigned) [Example 50-27]	7.8
CON=C1CCC(NCC(O)C(Cc2cc(F)cc(F)c2)NC(C)=O)(c2cccc(C(C)(C)C)c2)CC1 (stereo not drawn) [Example 50-2]	15.9 and 18.3
CCON=C1CCC(NCC(O)C(Cc2cc(F)cc(F)c2)NC(C)=O)(c2cccc(C(C)(C)C)c2)CC1 (stereo not drawn) [Example 50-3]	1.8
CC(=O)NC(Cc1cc(F)cc(F)c1)C(O)CNC1(c2cccc(C(C)(C)C)c2)CCC(=NOCCO)CC1 (stereo not drawn) [Example 50-4]	2.3 and 2.5
CC(=O)NC(Cc1cc(F)cc(F)c1)C(O)CNC1(c2cccc(C(C)(C)C)c2)CCC(=CC#N)CC1 (stereo not drawn) [Example 50-14]	1.9
Cn1cc2c(n1)CCC(NCC(O)C(Cc1cc(F)cc(F)c1)NC(=O)CF)(c1cccc(C(C)(C)C)c1)C2 (stereo not drawn) [Example 50-22]	2.0
CC(C)(C)c1cccc(C2(NCC(O)C(Cc3cc(F)cc(F)c3)NC(=O)CF)CCc3n[nH]cc3C2)c1 (stereo not drawn) [Example 50-25]	8.5

tested on: cathepsin E (catE) versus beta-secretase (BACE); experiment: Selectivity for BACE versus catE (ratio of IC50 values); assay type: biochemical; conditions: multiple values = more than one experiment
Protocol: as §1
Selectivity is reported as the ratio of IC50(catE):IC50(BACE).

Structure (SMILES)	Selectivity IC50(catE)/IC50(BACE)
CON=C1CCC(NCC(O)C(Cc2cc(F)cc(F)c2)NC(C)=O)(c2cccc(C(C)(C)C)c2)CC1 (stereo not drawn) [Example 51-2]	9.3 and 10.4
CCON=C1CCC(NCC(O)C(Cc2cc(F)cc(F)c2)NC(C)=O)(c2cccc(C(C)(C)C)c2)CC1 (stereo not drawn) [Example 51-3]	3.3
C=C1CCC(NCC(O)C(Cc2cc(F)cc(F)c2)NC(C)=O)(c2cccc(C(C)(C)C)c2)CC1 (stereo not drawn) [Example 51-14]	1.9
CC(=O)NC(Cc1cc(F)cc(F)c1)C(O)CNC1(c2cccc(C(C)(C)C)c2)CCC(=CC#N)CC1 (stereo not drawn) [Example 51-17]	3.9

Other lines, results leading:

Selectivity IC50(catE)/IC50(BACE)	Structure (SMILES)
23.2	CC(C)(C)c1cccc(C2(NCC(O)C(Cc3cc(F)cc(F)c3)NS(C)(=O)=O)CCc3n[nH]cc3C2)c1 (single isomer, unassigned) [Example 51-18]
5.8	CC(C)(C)c1cccc(C2(NCC(O)C(Cc3cc(F)cc(F)c3)NS(C)(=O)=O)CCc3n[nH]cc3C2)c1 (single isomer, unassigned) [Example 51-19]
8.4	CC(=O)NC(Cc1cc(F)cc(F)c1)C(O)CNC1(c2cccc(C(C)(C)C)c2)CCc2nn(C(C)=O)cc2C1 (stereo not drawn) [Example 51-12]
1.1	CC(=O)NC(Cc1cc(F)cc(F)c1)C(O)CNC1(c2cccc(-c3ccsc3)c2)CCc2nn(C)cc2C1 (stereo not drawn) [Example 51-20]
4.8	Cn1cc2c(n1)CCC(NCC(O)C(Cc1cc(F)cc(F)c1)NS(C)(=O)=O)(c1cccc(C(C)(C)C)c1)C2 (stereo not drawn) [Example 51-21]
1.8	CC(=O)NC(Cc1cc(F)cc(F)c1)C(O)CNC1(c2cccc(-n3cccn3)c2)CCc2nn(C)cc2C1 (stereo not drawn) [Example 51-22]
1.8	CC(=O)NC(Cc1cc(F)cc(F)c1)C(O)CNC1(c2cccc(C(C)(C)C)c2)CCc2nn(C)cc2C1 (stereo not drawn) [Example 51-23]
